Results as given in ChEMBL document CHEMBL4402510, “Caprazamycins: Promising lead structures acting on a novel antibacterial target MraY” (Eur J Med Chem, 2019).
Converted amounts (≈) assume the structure as drawn.

How the values were obtained:
[1] = target: T1, Phospho-N-acetylmuramoyl-pentapeptide-transferase (Bacillus subtilis (strain 168), UniProt Q03521); test: Inhibition of MraY in Bacillus subtilis using UDP-MurNAc-[14C]pentapeptide as substrate by radioactivity scanning assay
T1 sequence (Q03521 whole entry): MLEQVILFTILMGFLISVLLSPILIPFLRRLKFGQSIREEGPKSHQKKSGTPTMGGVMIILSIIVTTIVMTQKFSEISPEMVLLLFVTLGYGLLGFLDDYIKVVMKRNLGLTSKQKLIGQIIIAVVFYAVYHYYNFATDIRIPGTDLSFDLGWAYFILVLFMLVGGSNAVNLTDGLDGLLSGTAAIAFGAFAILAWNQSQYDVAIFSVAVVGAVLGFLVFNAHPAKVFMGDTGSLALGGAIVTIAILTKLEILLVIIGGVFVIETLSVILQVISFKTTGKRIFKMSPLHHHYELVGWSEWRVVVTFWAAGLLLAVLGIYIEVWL

[2] = target: Phospho-N-acetylmuramoyl-pentapeptide-transferase (Escherichia coli, UniProt E2QF15); test: Inhibition of MraY in Escherichia coli
Chain of Phospho-N-acetylmuramoyl-pentapeptide-transferase (Escherichia coli, UniProt E2QF15) (E2QF15 whole entry): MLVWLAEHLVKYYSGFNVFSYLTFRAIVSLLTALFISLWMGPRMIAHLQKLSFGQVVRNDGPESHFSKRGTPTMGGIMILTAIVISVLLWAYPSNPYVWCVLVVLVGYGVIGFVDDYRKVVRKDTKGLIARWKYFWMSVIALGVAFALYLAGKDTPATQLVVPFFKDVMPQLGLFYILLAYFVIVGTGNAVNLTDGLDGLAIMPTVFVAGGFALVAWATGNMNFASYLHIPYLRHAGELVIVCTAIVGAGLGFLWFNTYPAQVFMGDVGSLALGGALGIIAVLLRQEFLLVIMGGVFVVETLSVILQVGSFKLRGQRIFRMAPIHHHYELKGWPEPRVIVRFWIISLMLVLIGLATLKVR

Staphylococcus aureus [3] = test: Antibacterial activity against multi drug resistance Staphylococcus aureus after 20 hrs by NCCLS-based two-fold broth dilution method; format: functional
Staphylococcus aureus [4] = test: Antibacterial activity against Staphylococcus aureus after 20 hrs by NCCLS-based two-fold broth dilution method; format: functional
[5] = test system: Mycolicibacterium smegmatis; test: Antibacterial activity against Mycobacterium smegmatis after 20 hrs by NCCLS-based two-fold broth dilution method; format: functional
Staphylococcus aureus [6] = test: Antibacterial activity against methicillin resistant Staphylococcus aureus after 20 hrs by NCCLS-based two-fold broth dilution method; format: functional; conditions: read-out: MIC
Enterococcus faecalis [7] = test: Antibacterial activity against t Enterococcus faecalis VRE after 20 hrs by NCCLS-based two-fold broth dilution method; format: functional; conditions: read-out: MIC
Mycolicibacterium vaccae = test: Antibacterial activity against Mycobacterium vaccae; format: functional
[8] = test system: Mycobacterium intracellulare; test: Antibacterial activity against Mycobacterium intracellulare; format: functional
Mycobacterium avium = test: Antibacterial activity against Mycobacterium avium; format: functional
[9] = test system: Mycobacterium tuberculosis; test: Antibacterial activity against Mycobacterium tuberculosis; format: functional
[10] = test system: Mycolicibacterium smegmatis; test: Antibacterial activity against Mycobacterium smegmatis; format: functional
Enterococcus faecalis [11] = test: Antibacterial activity against t Enterococcus faecalis after 20 hrs by NCCLS-based two-fold broth dilution method; format: functional; conditions: read-out: MIC
Enterococcus faecium [12] = test: Antibacterial activity against Enterococcus faecium ATCC 19434; format: functional
Enterococcus faecium [13] = test: Antibacterial activity against Enterococcus faecium SR7917 (VRE); format: functional
Haemophilus influenzae [14] = test: Antibacterial activity against Haemophilus influenzae ATCC 10211; format: functional
Staphylococcus aureus [15] = test: Antibacterial activity against methicillin resistant Staphylococcus aureus SR3637; format: functional
Enterococcus faecium [16] = test: Antibacterial activity against t Enterococcus faecium after 20 hrs by NCCLS-based two-fold broth dilution method; format: functional
Haemophilus influenzae [17] = test: Antibacterial activity against Haemophilus influenzae after 20 hrs by NCCLS-based two-fold broth dilution method; format: functional
Enterococcus faecium [18] = test: Antibacterial activity against t Enterococcus faecium VRE after 20 hrs by NCCLS-based two-fold broth dilution method; format: functional; conditions: read-out: MIC
Staphylococcus aureus [19] = test: Antibacterial activity against methicillin susceptible Staphylococcus aureus after 20 hrs by NCCLS-based two-fold broth dilution method; format: functional; conditions: read-out: MIC
Pseudomonas aeruginosa [20] = test: Antibacterial activity against Pseudomonas aeruginosa after 20 hrs by NCCLS-based two-fold broth dilution method; format: functional
Pseudomonas aeruginosa [21] = test: Antibacterial activity against Pseudomonas aeruginosa YY165; format: functional
Enterococcus faecalis [22] = test: Antibacterial activity against Enterococcus faecalis ATCC 29212; format: functional
Staphylococcus aureus [23] = test: Antibacterial activity against methicillin susceptible Staphylococcus aureus ATCC 29213; format: functional
Enterococcus faecalis [24] = test: Antibacterial activity against Enterococcus faecalis SR7914 (VRE); format: functional

`NC[C@H]1O[C@@H](O[C@@H](c2cn(Cc3ccc(COc4ccc(C(=O)c5ccccc5)cc4)cc3)nn2)[C@H]2O[C@@H](n3ccc(=O)[nH]c3=O)[C@H](O)[C@@H]2O)[C@H](O)[C@@H]1O` gave an IC50 [1] of 50 µM.

`NC[C@H]1O[C@@H](OC[C@H]2O[C@@H](n3ccc(=O)[nH]c3=O)[C@H](O)[C@@H]2O)[C@H](O)[C@@H]1O` was tested, and the IC50 [2] was 50 µM.

Molecule `CCCCCCCCCCCCCCCC(=O)O[C@H]1CN[C@@H]([C@H](O[C@@H]2O[C@H](CN)[C@@H](O)[C@H]2O)[C@H]2O[C@@H](n3ccc(=O)[nH]c3=O)[C@H](O)[C@@H]2O)C(=O)N(C)[C@@H]1C(=O)O` [DESMETHYLPALMITOYLCAPRAZOL] has an MIC (Staphylococcus aureus [3]) of 3.13 µg/mL (≈ 3.91 µM), an MIC (Staphylococcus aureus [4]) of 1.56 µg/mL (≈ 1.95 µM) and an MIC [5] of 25 µg/mL (≈ 31.3 µM). For the same molecule, the MIC (Staphylococcus aureus [6]) was 6.25 to 12.5 µg/mL (≈ 7.81 to 15.6 µM) and the MIC (Enterococcus faecalis [7]) was 12.5 µg/mL (≈ 15.6 µM).

Work on `NC[C@H]1O[C@@H](O[C@@H](CO)[C@H]2O[C@@H](n3ccc(=O)[nH]c3=O)[C@H](O)[C@@H]2O)[C@H](O)[C@@H]1O` yielded an IC50 [2] of 5 µM.

`CCCCCCCCCCCCCCCC(=O)O[C@H]1CN(C)[C@@H]([C@H](O[C@@H]2O[C@H](CN)[C@@H](O)[C@H]2O)[C@H]2O[C@@H](n3ccc(=O)[nH]c3=O)[C@H](O)[C@@H]2O)C(=O)N(C)[C@@H]1C(=O)O` [PALMITOYL CAPRAZOL] gave an MIC (Staphylococcus aureus [3]) of 3.13 µg/mL (≈ 3.85 µM), an MIC (Staphylococcus aureus [4]) of 1.56 µg/mL (≈ 1.92 µM) and an MIC [5] of 6.25 µg/mL (≈ 7.68 µM). It also gave an MIC (Staphylococcus aureus [6]) of 6.25 µg/mL (≈ 7.68 µM) and an MIC (Enterococcus faecalis [7]) of 12.5 µg/mL (≈ 15.4 µM).

`CCCCCCCCCCCCC[C@@H](CC(=O)O[C@H]1CN(C)[C@@H]([C@H](O[C@@H]2O[C@H](CN)[C@@H](O)[C@H]2O)[C@H]2O[C@@H](n3ccc(=O)[nH]c3=O)[C@H](O)[C@@H]2O)C(=O)N(C)[C@@H]1C(=O)O)OC(=O)C[C@H](C)CC(=O)O[C@@H]1O[C@@H](C)[C@H](OC)[C@@H](OC)[C@H]1OC` was tested, and the MIC (Mycolicibacterium vaccae) was 0.2 µg/mL (≈ 0.174 µM), the MIC [8] was 0.78 µg/mL (≈ 0.68 µM) and the MIC (Mycobacterium avium) was < 0.025 µg/mL. For the same molecule, the MIC [9] was 1.56 µg/mL (≈ 1.36 µM) and the MIC [10] was 0.78 to 1.56 µg/mL (≈ 0.68 to 1.36 µM).

For `CCCCCCCCCCCCCC(=O)N[C@@H]1CCN[C@@H]([C@H](O[C@@H]2O[C@H](CN)[C@@H](O)[C@H]2O)[C@H]2O[C@@H](n3ccc(=O)[nH]c3=O)[C@H](O)[C@@H]2O)C1`, the MIC (Enterococcus faecalis [11]) was 2 µg/mL (≈ 2.92 µM), the MIC (Enterococcus faecium [12]) was 16 µg/mL (≈ 23.4 µM) and the MIC (Enterococcus faecium [13]) was 8 µg/mL (≈ 11.7 µM). For the same molecule, the MIC (Haemophilus influenzae [14]) was 32 µg/mL (≈ 46.8 µM), the MIC (Staphylococcus aureus [15]) was 32 µg/mL (≈ 46.8 µM) and the MIC (Enterococcus faecium [16]) was 16 µg/mL (≈ 23.4 µM). It also gave an MIC (Staphylococcus aureus [6]) of 32 µg/mL (≈ 46.8 µM), an MIC (Haemophilus influenzae [17]) of 32 µg/mL (≈ 46.8 µM) and an MIC (Enterococcus faecium [18]) of 8 µg/mL (≈ 11.7 µM). For the same molecule, the MIC (Staphylococcus aureus [19]) was 16 µg/mL (≈ 23.4 µM), the MIC (Pseudomonas aeruginosa [20]) was 32 µg/mL (≈ 46.8 µM) and the MIC (Pseudomonas aeruginosa [21]) was 32 µg/mL (≈ 46.8 µM). For the same molecule, the MIC (Enterococcus faecalis [22]) was 2 µg/mL (≈ 2.92 µM), the MIC (Staphylococcus aureus [23]) was 16 µg/mL (≈ 23.4 µM) and the MIC (Enterococcus faecalis [7]) was 2 µg/mL (≈ 2.92 µM). For the same molecule, the MIC (Enterococcus faecalis [24]) was 2 µg/mL (≈ 2.92 µM).
